The results in this text go back to the supplement of paper PMC9265050, “Inhibition of RNA Binding in SND1 Increases the Levels of miR-1-3p and Sensitizes Cancer Cells to Navitoclax” (Cancers, 2022).

The assay relates to SW480. Description: drug sensitivity score (DSS, integrated dose-response area); higher = more sensitive (stronger viability reduction); extreme values may be limits of the assay. The essentials: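 The drug sensitivity score is the integrated area under a fitted non-linear dose–response model. It was derived from SW480 cells with doxycycline-inducible control or SND1-targeting shRNA, induced with 0.1 µg/mL doxycycline for 7 days and plated at 1000 cells per well on 384-well plates of 525 commercially available small-molecule inhibitors at five concentrations. CellTiter-Glo measured viability after 72 h.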

Setting [1] is: shRNA: SND1 shRNA1 (SND1 silenced).
Setting [2] is: shRNA: SND1 shRNA2 (SND1 silenced).
Where [3] appears, read: shRNA: control shRNA (non-targeting).

Take `CNC(=O)c1ccc(C)c(-n2c(C)cc(OCc3ccc(F)cc3F)c(Br)c2=O)c1`: the drug sensitivity score came to 0 DSS under setting [1], 1 DSS under setting [2] and 0 DSS under setting [3].

Take `O=C(O)CCCCC(CCSCc1ccccc1)SCc1ccccc1` (configuration not stated) [CPI-613]: the drug sensitivity score runs as follows: under setting [1], 0 DSS; under setting [3], 0 DSS.

`COc1nc(N)nc2c1ncn2[C@@H]1O[C@H](CO)[C@@H](O)[C@@H]1O` [Nelarabine]: the drug sensitivity score by setting is: under setting [1], 0 DSS; under setting [2], 0 DSS; under setting [3], 0 DSS.

`Cc1ccc(NC(=O)c2ccc(CN3CCN(C)CC3)cc2)cc1Nc1nc(-c2cccnc2)cs1` [Masitinib] came in with a drug sensitivity score under setting [1] of 3.1 DSS, a drug sensitivity score under setting [2] of 3.4 DSS and a drug sensitivity score under setting [3] of 4.6 DSS.

For `Nc1nc(F)nc2c1ncn2[C@@H]1O[C@H](CO)[C@@H](O)[C@@H]1O` [Fludarabine], the drug sensitivity score runs as follows: under setting [1], 1.8 DSS; under setting [2], 3.3 DSS; under setting [3], 4.7 DSS.

`c1ccc2c(CCNc3ccc(Nc4ccncc4)cc3)c[nH]c2c1` [Serdemetan] had a drug sensitivity score under setting [1] of 2.4 DSS, a drug sensitivity score under setting [2] of 1 DSS and a drug sensitivity score under setting [3] of 2.2 DSS.

As for `CN[C@@H]1C[C@H]2O[C@@](C)([C@@H]1OC)n1c3ccccc3c3c4c(c5c6ccccc6n2c5c31)C(=O)N[C@H]4O` [UCN-01], the drug sensitivity score runs as follows: under setting [1], 24 DSS; under setting [2], 25 DSS; under setting [3], 25.4 DSS.

Regarding `Cc1csc(-c2nnc(Nc3ccc(Oc4ncccc4-c4ccnc(N)n4)cc3)c3ccccc23)c1` [AMG-900], the drug sensitivity score was 5 DSS under setting [1], 0 DSS under setting [2] and 1.7 DSS under setting [3].

For the molecule `CCCCC/C=C/C=C1/C(=O)C=C[C@@H]1C/C=C\CCCC(=O)O` [15D-PGJ2], the drug sensitivity score reads like this: under setting [1], 1.7 DSS; under setting [2], 0 DSS; under setting [3], 0 DSS.

Turning to `C=CC(=O)Nc1cccc(Nc2nc(Nc3ccc(N4CCN(C(C)=O)CC4)cc3OC)ncc2C(F)(F)F)c1` [Rociletinib], the drug sensitivity score turned out to be 7.2 DSS under setting [1], 3.5 DSS under setting [2] and 7.5 DSS under setting [3].

In turn, `COc1ccc(C[C@H](NC(=O)[C@H](C)NC(=O)CN2CCOCC2)C(=O)N[C@@H](Cc2ccccc2)C(=O)C2(C)CO2)cc1` (stereo in doubt) [ONX-0914] showed a drug sensitivity score under setting [1] of 12.9 DSS, a drug sensitivity score under setting [2] of 12.6 DSS and a drug sensitivity score under setting [3] of 15.4 DSS.

Consider `C/C=C1\NC(=O)[C@H]2CSSCC/C=C/[C@H](CC(=O)N[C@H](C(C)C)C(=O)N2)OC(=O)[C@H](C(C)C)NC1=O` [Romidepsin], for which the drug sensitivity score is, setting by setting: under setting [1], 25.7 DSS; under setting [2], 25.1 DSS; under setting [3], 27.4 DSS.

On to `Oc1ncc(N(CCCl)CCCl)c(O)n1` [Uramustine], for which the drug sensitivity score by setting is: under setting [1], 0 DSS; under setting [2], 0.1 DSS; under setting [3], 0 DSS.

`CC/C(=C(\c1ccc(O)cc1)c1ccc(OCCN(C)C)cc1)c1ccccc1` [4-hydroxytamoxifen]: the drug sensitivity score came to 6.8 DSS under setting [1], 5.4 DSS under setting [2] and 8.7 DSS under setting [3].

With `O=C1c2c(O)ccc(O)c2C(=O)c2c(NCCNCCO)ccc(NCCNCCO)c21` [Mitoxantrone], the drug sensitivity score runs as follows: under setting [1], 1.9 DSS; under setting [2], 0.3 DSS; under setting [3], 0.8 DSS.

On to `C[C@@H]1CCN(C(=O)CC#N)C[C@@H]1N(C)c1ncnc2[nH]ccc12` [Tofacitinib], for which the drug sensitivity score under setting [1] was 0 DSS, the drug sensitivity score under setting [2] stood at 0 DSS and the drug sensitivity score under setting [3] is 0 DSS.

Consider `NC(=O)Nc1sc(-c2ccc(F)cc2)cc1C(N)=O` [TPCA-1], for which the drug sensitivity score under setting [1] stood at 3.8 DSS and the drug sensitivity score under setting [3] was found to be 2.3 DSS.

Turning to `COc1ccc(Cn2ccc3ccc(C(=O)NO)cc32)cc1`, the drug sensitivity score worked out at 3.3 DSS under setting [1], 5.3 DSS under setting [2] and 1.8 DSS under setting [3].
